Results reported in patent publication US20240368049A1, “ENHANCED PHYTOREMEDIATION FROM BIOAVAILABILITY OF PER- AND POLYFLUOROALKYL SUBSTANCES IN CONTAMINATED SOIL” (The Research Foundation for the State University of New York, priority 2023, published 2024).

How the values were obtained:
[1] = SPLP (EPA method 1312) leachability of PFAS in biosolids amended soil; type: physicochemical; details: for percentage of SPLP leachable PFAS in biosolids amended soil: without a sorbent, Day-80, pH 4.2
Protocol: PFAS in the freeze-dried timothy-grass shoots were extracted by MTBE-NaOH according to a previously developed method. Before extraction, each sample for extraction was spiked with 10 ng of 13C2-PFHxA as the surrogate for determining the extraction efficiency. EPA method 1312 (Synthetic Precipitation Leaching Procedure, SPLP) was performed on the biosolids amended soil after drying to determine the leachability of PFAS. Briefly, 20 mL of H2SO4/HNO3 reagent (60/40 wt/wt.) at pH=4.2 were added to the soil sample. The soil with the H2SO4/HNO3 reagent was then vortexed for 30s and shaken on an end over end mixer overnight. After centrifugation at 3500 g for 30 min, the supernatant was collected and subject to solid phase extraction (SPE) using HyperSep C18 cartridges (Thermo Scientific, Waltham, MA). The SPLP leachable PFAS on the C18 cartridges were eluted with 2 mL of methanol, followed by 2 mL of 0.1% NH40H amended methanol. The SPLP leachable PFAS in clean soil without biosolids amendment were analyzed as well. PFAS in the final plant extracts and SPLP leachates were quantified using a 1290 Infinity II LC system coupled with a 6470 Triple Quad Mass Spectrometer (LC-MS/MS, Agilent Technologies, Santa Clara, CA, USA).
FIG. 3 is a series of graphs 40 of percentages of leachable PFAS in biosolids-amended soil treated by different sorbents on Day-80 (n=3). Different letters represent significant differences among the treatments (p<0.05). […] Without a sorbent, almost 100% of leaching of PFHxA 42, PFHpA 44 and PFOA 46 was observed. Similarly to PFAS uptake by the shoots, a chain length effect was visible: the shorter the carbon chain of PFAS, the higher the leachability. […] Compared to PFAS concentrations in the shoots (FIG. 1), there was no positive correlation between acidic water leachable PFAS and the extent of shoot uptake for treatment with biochar at both doses and RemBind at the dose of 0.2%. Thus, results from SPLP at pH=4.2 for sites east of the Mississippi River may not be able to predict bioavailable PFAS to the studied grass. The SPLP is an established and widely adopted EPA method for investigating leaching of organic contaminants in soil. One should note that the acidic water used in the leaching procedure may actually decrease PFAS leaching due to the acidic nature of PFAAs. But since the focus here was to evaluate the effect of different sorbents toward stabilizing PFAS in soil amended by biosolids, the SPLP served our purpose well.

[2] = test system: timothy-grass (Phleum pratense); experiment: uptake of PFAS by timothy-grass shoots grown in biosolids-amended soil treated by a sorbent or SDS; type: in vivo
Description: The method uses the addition of a mobilizing reagent, at a predetermined dose as described herein, to amend the soil around a root system of one or more plants. The supplementing of the amended soil with a stabilizing reagent at a predetermined dose, as also defined below. In one embodiment, the preparation of biosolids amended soil uses a sandy loam soil used in this study (pH=7.56), which was collected from a local farm in Albany County, New York. The soil was passed through a 2-mm sieve before use. The contents of natural organic matter and total organic carbon of the sieved soil were 4.82±0.12% and 2.44±0.45%, respectively. The sieved soil was mixed with vermiculite in a 1:1 vol ratio for increasing water retention of the soil and improving soil aeration. Then, the processed soil for plant cultivation was distributed to 7-quart polypropylene containers (14.375″L×8.25″W×6″H). Each container had 1.3 kg of dry soil.
The biosolids after anaerobic digestion of sludge were collected from a nearby wastewater treatment plant close to University at Albany. The total solid and total organic carbon of the biosolids were 24.16±0.21% and 28.64±0.28%, respectively. […]
Timothy-grass seeds were purchased from OrOlam LLC (South Miami, FL). […] Around 1 g of the plant tissues from each treatment was used for chlorophyll extraction and quantification. […]

[3] = test system: timothy-grass (Phleum pratense); experiment: chlorophyll content of timothy-grass shoots; type: in vivo; details: mobilization treatment with SDS
Protocol: Timothy-grass seeds were purchased from OrOlam LLC (South Miami, FL). One gram of seeds was sown evenly in each tank containing the prepared biosolids amended soil. Enough water was then added to each tank to reach 100% of field capacity. The plants were cultivated in a greenhouse and watered every day. The timothy-grass started germinating on the 5th day after sowing. On Day-40 after seed germination, the above-ground shoots of the grass in each tank were cut and rinsed thoroughly using deionized water. Around 1 g of the plant tissues from each treatment was used for chlorophyll extraction and quantification. The remaining plant shoots were freeze-dried at −37° C. for 48 h and subject to PFAS extraction and analysis. The plants after cutting were kept under the same growth condition. On Day-80 after seed germination or day-40 after the first cut, the plant shoots were removed again and subject to chlorophyll and PFAS analysis. […]
On Day-40 and Day-80 after seed germination, 100 mg of fresh grass leaves were collected and used to quantify chlorophyll content. […] After 48 h, the chlorophyll concentration in the solvent was determined using a UV-Vis spectrophotometer (GENESYS 10S, Thermo Fisher Scientific, altham, MA, USA). The absorbance was read at 664 and 647 nm and used to calculate chlorophyll a and b and total chlorophyll content according to these equations: […]

## O=C(O)C(F)(F)C(F)(F)C(F)(F)C(F)(F)C(F)(F)C(F)(F)C(F)(F)F [PFOA, perfluorooctanoic acid]
[1]
  percentage of SPLP leachable PFAS in biosolids amended soil: ~100%

## O=C(O)C(F)(F)C(F)(F)C(F)(F)C(F)(F)C(F)(F)C(F)(F)F [PFHpA, perfluoroheptanoic acid]
[1]
  percentage of SPLP leachable PFAS in biosolids amended soil: ~100%

## O=C(O)C(F)(F)C(F)(F)C(F)(F)C(F)(F)C(F)(F)F [PFHxA, perfluorohexanoic acid]
[1]
  percentage of SPLP leachable PFAS in biosolids amended soil: ~100%

## CCCCCCCCCCCCOS(=O)(=O)[O-].[Na+] [SDS, sodium dodecyl sulphate]
[2]; SDS 100 mg/kg, Day-40, exceptions PFOA and PFOS
  effect on uptake of PFAS by the shoots: significantly higher uptake of PFAS
[2]; SDS, all three doses (10, 50, 100 mg/kg), Day-80
  effect on ΣPFAS uptake by the shoots: significantly higher PFAS uptake
[1]; SDS at a dose up to 100 mg/kg
  effect on acidic water leachable PFAS in biosolids amended soil: did not significantly increase
[3]
  effect on chlorophyll content in timothy-grass: did not change the chlorophyll content
